{"source": "patent US7390837B2", "about": "“Germicidal compositions containing phenylmalonaldehyde-type compounds, or mixtures of phenylmalonaldehyde-type compounds and phthalaldehydes, and methods of using such compositions for disinfection or sterilization” (Ethicon, Inc., priority 2004, dated 2008)", "key": {"[1]": {"system": "Mycobacterium terrae bacteria", "assay": "bacterial suspension test", "assay_type": "cell-based", "settings": "for Germicidal Efficacy: summary Table 14", "experimental": "The bacterial suspension test that was employed is described in Section VII.\nThe solutions were prepared by adding the appropriate amounts of the germicidal compounds to an aqueous solution. Unless otherwise mentioned all concentrations reported herein are expressed in (w/v) %. The pH of the solution was not adjusted. The tests were conducted at a temperature of about 20° C. (room temperature). The results are presented in terms of log reductions/mL. It is understood that these examples, as well as the other examples herein, are to be construed as merely illustrative, and not limiting.\nIn this test method, 9 mL of the germicide to be tested is placed in a tube, put into a water bath and allowed to come to the desired temperature. One mL of the test organism, including at least 7 logs/mL of Mycobacterium terrae bacteria, is added to the 9 mL of the germicide to be tested. […] It will be appreciated by those skilled in the art that other concentrations may be utilized by proper dilution and accounting.\nAt appropriate time intervals, 1 mL aliquots of the germicide-cell suspension were removed and added directly into 9 mL of a 1% glycine solution (neutralizer) and mixed thoroughly to neutralize the germicide in the transferred suspension. The glycine solution was prepared from solid glycine, which is available from VWR Scientific Products, among others. The above-identified 10 mL neutralized solution was then poured through a membrane filter having an average pore size of 0.45 micrometers. The filter was then rinsed twice with at least 150 mL of the 1% glycine solution per rinse. The filter was then placed on an agar plate and incubated for twenty-one days at 37° C. In the above procedure, if dilution was needed, then the 1 mL germicidal-cell suspension was diluted in 99 mL of a phosphate buffer before addition to the 9 mL of the 1% glycine solution. The phosphate buffer was DiLu-LoK™ Butterfields Phosphate Buffer, available from Hardy Diagnostics, of Santa Maria, Calif.\nThe surviving colonies are then counted. The data is plotted as S/So vs. time. So is the initial count of the bacteria in the above 10 mL solution which is at least 10^6 bacteria/mL, and S is the surviving bacteria from the above filter on the agar plate. The results of the experiments were presented in terms of log reductions. Log reduction is the difference between log(So) and log(S). As one example, if log(So)=6.2, and if there were 100 survivors, then the log(S)=2, and the log reduction was reported as 4.2."}, "[2]": {"assay": "solubility in water", "assay_type": "physicochemical"}}}
{"compound": "4-pyridinyl-propanedial", "values": [{"measurement": "Log Reductions/mL", "setting": "[1]; Saturated (~2.3% w/v), 5 min, 20° C.", "value": 4.0, "unit": "log reductions/mL"}]}
{"compound": "O=CC(c1ccccc1)C(O)S(=O)(=O)[O-].[Na+]", "note": "(centres unmarked) [1-hydroxy-3-oxo-2-phenyl-propane-1-sulfonic acid, sodium salt]", "values": [{"measurement": "Log Reductions/mL", "setting": "[1]; 0.6%, 20° C., 60 min, sodium salt", "value": "Total Kill"}, {"measurement": "Log Reductions/mL", "setting": "[1]; 2.5%, 20° C., 10 min, sodium salt", "value": "total kill"}]}
{"compound": "O=Cc1ccc(Br)cc1C=O", "note": "[4-bromo-phthalaldehyde]", "values": [{"measurement": "Log Reductions/mL", "setting": "[1]; 0.1%, 20° C., exposure time 30 minutes", "value": "Total Kill"}]}
{"compound": "O=Cc1ccc(Cl)cc1C=O", "note": "[4-chloro-phthalaldehyde]", "values": [{"measurement": "Log Reductions/mL", "setting": "[1]; 2.7 w/v % in 20% isopropanol, 20° C., 5 min", "value": "Total Kill"}]}
{"compound": "O=Cc1ccc(F)cc1C=O", "note": "[4-fluoro-phthalaldehyde]", "values": [{"measurement": "Log Reductions/mL", "setting": "[1]; 0.25%, 20° C., exposure time 60 minutes", "value": "Total Kill"}]}
{"compound": "O=Cc1ccccc1C(O)S(=O)(=O)[O-].[Na+]", "note": "(centres unmarked) [(2-formyl-phenyl)-hydroxy-methane sulfonic acid, sodium salt]", "values": [{"measurement": "Log Reductions/mL", "setting": "[1]; 9.1%, 20° C., 5 min, listed as (2-formyl-phenyl)-hydroxy-methane sulfonate, sodium salt", "value": "confluent"}, {"measurement": "Log Reductions/mL", "setting": "[1]; 9.1%, 20° C., 5 min, listed as H-SULF, sodium salt", "value": "Confluent"}]}
{"compound": "O=Cc1cccc(C=O)c1", "note": "[IPA, isophthalaldehyde, reference compound]", "values": [{"measurement": "Log Reductions/mL", "setting": "[1]; 0.3%, dissolved in 20% isopropanol, 20° C., 5 min (Table 11)", "value": "Confluent"}, {"measurement": "Log Reductions/mL", "setting": "[1]; 0.3%, dissolved in 20% isopropanol, 20° C., 5 min (Table 11), listed as EPA", "value": "confluent"}, {"measurement": "Log Reductions/mL", "setting": "[1]; 0.3%, dissolved in 20% isopropanol, 20° C., 5 min (Table 15)", "value": "Confluent"}, {"measurement": "Germicidal Efficacy", "setting": "[1]", "value": "Poor"}]}
{"compound": "O=Cc1ccccc1C=O", "note": "[OPA, phthalaldehyde]", "values": [{"measurement": "Germicidal Efficacy", "setting": "[1]", "value": "Good"}, {"measurement": "solubility in water", "setting": "[2]", "value": "about 5 % by weight"}]}
{"compound": "O=Cc1ccc(C=O)cc1", "note": "[TPA, terephthalaldehyde, reference compound]", "values": [{"measurement": "Log Reductions/mL", "setting": "[1]; 0.2%, dissolved in 20% isopropanol, 20° C., 5 min", "value": "Confluent"}, {"measurement": "Germicidal Efficacy", "setting": "[1]", "value": "Poor"}]}
{"compound": "O=CC(C=O)c1ccccc1", "note": "[phenyl-propanedial]", "values": [{"measurement": "Log Reductions/mL", "setting": "[1]; 0.4%, 20° C., 60 min (Table 5)", "value": "Total Kill"}, {"measurement": "Log Reductions/mL", "setting": "[1]; 0.44%, 20° C., 60 min (Table 15)", "value": "Total Kill"}, {"measurement": "Log Reductions/mL", "setting": "[1]; 0.66%, 20° C., 15 min (Table 15)", "value": "Total Kill"}, {"measurement": "Log Reductions/mL", "setting": "[1]; 0.7%, 20° C., 15 min (Table 5)", "value": "Total Kill"}, {"measurement": "logs killed", "setting": "[1]; 1% solution, 5 minutes, 20° C.", "value": "more than 4 logs"}, {"measurement": "Log Reductions/mL", "setting": "[1]; ~1%, 20° C., 5 min (Table 15)", "value": 4.5, "unit": "log reductions/mL"}, {"measurement": "solubility in water", "setting": "[2]", "value": "about 1%"}]}
